Measurements taken from the supplement of paper PMC10331698.
± gives the standard deviation of the averaged measurements.

Legend:
Experiment in all cases: level (log10 ratio to DMSO vehicle control); higher = higher biomarker level / cell amount than vehicle control
[1] = compound: O=S(=O)(O)C(F)(F)C(F)(F)OC(F)(F)C(F)(F)F [Perfluoro(2-ethoxyethane)sulfonic acid] (in DMSO)
Experimental: (§1)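 BioMAP Diversity Plus panel of 12 human primary cell co-culture systems (3C, 4H, LPS, SAg, BT, BF4T, BE3C, CASM3C, HDF3CGF, KF3CT, MyoF, Mphg). Compounds were added 1 h before stimulation and left for 24 h (MyoF 48 h; BT 72 h for soluble read-outs or 6 d for IgG). Biomarkers were read by ELISA, cytotoxicity by SRB, PBMC viability and proliferation by Alamar Blue. Each well value was divided by the mean of 8 DMSO control wells on the same plate and log10 transformed; duplicate blinded samples were tested at 4 concentrations.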

[2] = compound: O=C(O)C(F)(F)OC(F)(F)C(F)(F)OC(F)(F)C(F)(F)OC(F)(F)C(F)(F)C(F)(F)C(F)(F)F [Perfluoro-3,6,9-trioxatridecanoic acid] (in DMSO); settings: 6700 nM
Experimental: as §1

[3] = compound: O=C(O)C(F)(F)C(F)(F)C(F)(F)OC(F)(F)F [Perfluoro(4-methoxybutanoic) acid] (in DMSO)
Experimental: as §1

[4] = compound: O=C(O)C(F)(OC(F)(F)C(F)(OC(F)(F)C(F)(OC(F)(F)C(F)(F)C(F)(F)F)C(F)(F)F)C(F)(F)F)C(F)(F)F [Perfluoro-(2,5,8-trimethyl-3,6,9-trioxadodecanoic)acid] (in DMSO)
Experimental: as §1

[5] = compound: O=C(O)C=C(C(F)(F)F)C(F)(F)F [3,3-Bis(trifluoromethyl)-2-propenoic acid] (in DMSO)
Experimental: as §1

[6] = compound: OCCC(F)(F)C(F)(F)C(F)(F)C(F)(F)F [4:2 Fluorotelomer alcohol] (in DMSO)
Experimental: as §1

[7] = compound: O=C(O)C(F)(OC(F)(F)C(F)(F)C(F)(F)F)C(F)(F)F [Ammonium perfluoro-2-methyl-3-oxahexanoate] (in Water)
Experimental: as §1

| Test System | level (log10) ([1]; 6700 nM) | level (log10) ([1]; 20000 nM) | level (log10) ([1]; 60000 nM) | level (log10) [2] | level (log10) ([3]; 6700 nM) | level (log10) ([3]; 20000 nM) | level (log10) ([3]; 60000 nM) | level (log10) ([4]; 1100 nM) | level (log10) ([4]; 3300 nM) | level (log10) ([4]; 10000 nM) | level (log10) ([5]; 6700 nM) | level (log10) ([5]; 20000 nM) | level (log10) ([5]; 60000 nM) | level (log10) ([6]; 6700 nM) | level (log10) ([6]; 20000 nM) | level (log10) ([6]; 60000 nM) | level (log10) ([7]; 6700 nM) | level (log10) ([7]; 20000 nM) | level (log10) ([7]; 60000 nM) |
| --- | --- | --- | --- | --- | --- | --- | --- | --- | --- | --- | --- | --- | --- | --- | --- | --- | --- | --- | --- |
| BF4T:MMP-1 | -0.002 ± 0.013 | -0.0005 ± 0.00071 | 0.0125 ± 0.0064 | -0.0535 ± 0.012 | 0.0065 ± 0.029 | 0.0015 ± 0.032 | 0.0095 ± 0.011 | 0.0005 ± 0.0092 | -0.0045 ± 0.011 | 0.0065 ± 0.018 | -0.006 ± 0.018 | 0 ± 0.0042 | 0.0125 ± 0.021 | -0.008 ± 0.031 | -0.0005 ± 0.036 | 0.0085 ± 0.015 | 0.031 ± 0.02 | 0.0105 ± 0.023 | 0.029 ± 0.011 |
| BF4T:MMP-3 | 0.0015 ± 0.0064 | 0.0105 ± 0.023 | 0.0805 ± 0.067 | -0.0415 ± 0.064 | 0.0015 ± 0.012 | -0.008 ± 0.014 | 0.0155 ± 0.0078 | -0.01 ± 0.0014 | -0.01 ± 0.014 | 0.015 ± 0.017 | -0.0165 ± 0.00071 | -0.0105 ± 0.0064 | 0.0205 ± 0.037 | -0.0135 ± 0.021 | -0.008 ± 0.013 | -0.011 ± 0.014 | 0.0335 ± 0.047 | 0.018 ± 0.0057 | 0.048 ± 0.014 |
| BF4T:MMP-9 | 0.003 ± 0.042 | -0.0005 ± 0.019 | 0.0295 ± 0.0021 | -0.106 ± 0.079 | 0.0095 ± 0.032 | 0.006 ± 0.034 | 0.027 ± 0.028 | 0.0045 ± 0.015 | -0.003 ± 0.0028 | 0.0135 ± 0.00071 | -0.0155 ± 0.0021 | -0.0185 ± 0.018 | -0.004 ± 0.021 | -0.0075 ± 0.03 | -0.013 ± 0.0071 | -0.011 ± 0.031 | 0.0275 ± 0.005 | 0.047 ± 0.017 | 0.075 ± 0.013 |
| BF4T:PAI-I | -0.002 ± 0.0014 | -0.002 ± 0.0028 | 0.0105 ± 0.021 | -0.011 ± 0.011 | 0.0015 ± 0.011 | -0.008 ± 0.014 | 0.014 ± 0.035 | 0.011 ± 0.0071 | -0.0025 ± 0.0092 | 0.006 ± 0.018 | 0.0055 ± 0.0021 | 0.001 ± 0.0042 | -0.0055 ± 0.021 | -0.0075 ± 0.023 | 0.0005 ± 0.035 | 0.0005 ± 0.00071 | -0.004 ± 0.0028 | 0.001 ± 0.0042 | 0.005 ± 0.0028 |
| BF4T:SRB | 0.0045 ± 0.015 | 0.001 ± 0.0099 | 0.004 ± 0.018 | -0.038 ± 0.013 | -0.0105 ± 0.00071 | -0.0135 ± 0.0064 | -0.0105 ± 0.0035 | -0.0035 ± 0.00071 | -0.0035 ± 0.011 | 0.003 ± 0.023 | 0.0015 ± 0.005 | -0.006 ± 0.011 | 0.0045 ± 0.0092 | -0.0075 ± 0.00071 | -0.0105 ± 0.0078 | -0.0045 ± 0.012 | -0.003 ± 0.013 | 0 ± 0.0014 | 0.0135 ± 0.022 |
| BF4T:tPA | -0.0095 ± 0.022 | -0.004 ± 0.021 | 0.017 ± 0.05 | -0.185 ± 0.057 | -0.003 | 0.0005 ± 0.0064 | 0.0105 ± 0.022 | -0.012 ± 0.02 | -0.012 ± 0.0042 | -0.0035 ± 0.021 | -0.0965 ± 0.035 | -0.12 ± 0.026 | -0.11 ± 0.029 | -0.0085 ± 0.056 | -0.0155 ± 0.071 | 0.022 | 0.0405 ± 0.0078 | 0.0575 ± 0.033 | 0.0185 ± 0.019 |
| BF4T:uPA | -0.003 ± 0.011 | -0.0025 ± 0.021 | 0.0235 ± 0.00071 | 0.0245 ± 0.018 | -0.009 ± 0.0085 | -0.012 | 0.0045 ± 0.005 | 0.008 ± 0.0028 | 0.0015 ± 0.0035 | 0.004 ± 0.0071 | -0.0175 ± 0.0078 | -0.0195 ± 0.012 | -0.0135 ± 0.013 | -0.008 ± 0.035 | 0.012 ± 0.013 | 0.018 ± 0.025 | -0.0025 ± 0.011 | -0.0005 ± 0.0078 | 0.0035 ± 0.022 |
| BT:B cell Proliferation | 0.011 ± 0.011 | 0.0575 ± 0.036 | 0.034 ± 0.0014 | 0.028 ± 0.02 | -0.009 ± 0.034 | -0.0165 ± 0.013 | -0.006 ± 0.0099 | -0.029 ± 0.027 | -0.0035 ± 0.013 | -0.0145 ± 0.011 | -0.0145 ± 0.0021 | -0.0385 ± 0.0035 | -0.121 ± 0.0064 | 0.0125 ± 0.0035 | 0.0155 ± 0.033 | 0.019 ± 0.0042 | -0.239 ± 0.0085 | -0.256 ± 0.011 | -0.248 ± 0.0035 |
| BT:PBMC Cytotoxicity | 0.0245 ± 0.033 | 0.0005 ± 0.0035 | 0.056 ± 0.013 | 0.0125 ± 0.0078 | 0.0095 ± 0.0078 | -0.0025 ± 0.0064 | 0.0225 ± 0.021 | -0.0095 ± 0.0092 | -0.022 ± 0.011 | -0.04 ± 0.047 | 0.0065 ± 0.049 | 0.001 ± 0.02 | -0.009 ± 0.025 | -0.044 ± 0.0042 | -0.0365 ± 0.013 | -0.045 ± 0.031 | -0.083 ± 0.016 | -0.095 ± 0.0099 | -0.0905 ± 0.023 |
| BT:Secreted IgG | 0.0355 ± 0.0035 | -0.0135 ± 0.084 | -0.0095 ± 0.086 | -0.0225 ± 0.0092 | -0.0045 ± 0.03 | 0.026 ± 0.047 | -0.0125 ± 0.0064 | 0.0215 ± 0.049 | 0.0315 ± 0.013 | 0.0065 ± 0.021 | 0.0155 ± 0.005 | -0.0375 ± 0.052 | -0.597 ± 0.16 | 0.023 ± 0.028 | 0.0205 ± 0.018 | 0.013 ± 0.0057 | -0.12 ± 0.07 | -0.113 ± 0.059 | -0.156 |
| BT:sIL-2 | -0.023 ± 0.0085 | -0.0935 ± 0.04 | -0.0595 ± 0.066 | 0.0075 ± 0.016 | -0.013 ± 0.0028 | -0.006 ± 0.052 | 0.029 ± 0.051 | 0 ± 0.05 | 0.061 ± 0.069 | 0.0465 ± 0.026 | -0.297 ± 0.042 | -0.529 ± 0.02 | -0.648 ± 0.072 | 0.0085 ± 0.064 | 0.0625 ± 0.11 | 0.0265 ± 0.071 | -0.093 ± 0.0099 | -0.0525 ± 0.015 | -0.124 ± 0.028 |
| BT:sIL-6 | 0.006 ± 0.03 | -0.029 ± 0.0085 | -0.027 ± 0.076 | 0.0165 ± 0.032 | 0.042 ± 0.089 | 0.0225 ± 0.071 | -0.061 ± 0.038 | -0.0085 ± 0.07 | 0.0025 ± 0.053 | 0.038 ± 0.013 | 0.035 ± 0.037 | -0.0575 ± 0.026 | -0.182 ± 0.018 | 0.035 ± 0.02 | 0.0455 ± 0.036 | 0.009 ± 0.069 | -0.0915 ± 0.0035 | -0.0905 ± 0.021 | -0.151 ± 0.014 |
| BT:sIL-17A | -0.0995 ± 0.17 | -0.131 ± 0.05 | -0.148 ± 0.19 | 0.0515 ± 0.14 | -0.082 ± 0.0028 | -0.0755 ± 0.083 | 0.0425 ± 0.16 | -0.024 ± 0.11 | 0.121 ± 0.12 | 0.0575 ± 0.17 | 0.0535 ± 0.043 | -0.246 ± 0.1 | -0.482 ± 0.0028 | -0.007 ± 0.21 | -0.043 ± 0.11 | -0.037 ± 0.18 | 0.001 ± 0.02 | 0.036 ± 0.037 | -0.174 ± 0.096 |
| BT:sIL-17F | -0.0315 ± 0.022 | -0.071 ± 0.031 | -0.0005 ± 0.021 | 0.018 ± 0.027 | -0.0085 ± 0.059 | 0.07 ± 0.017 | -0.037 ± 0.073 | 0.044 ± 0.064 | 0.0125 ± 0.16 | -0.0705 ± 0.046 | -0.258 ± 0.031 | -0.426 ± 0.16 | -0.672 ± 0.021 | 0.0025 ± 0.03 | 0.075 ± 0.055 | 0.0675 ± 0.14 | 0.111 ± 0.016 | 0.116 ± 0.012 | 0.0455 ± 0.012 |
| BT:sTNF-alpha | -0.002 ± 0.037 | -0.012 ± 0.083 | 0.029 ± 0.058 | -0.0035 ± 0.057 | -0.028 ± 0.0042 | -0.0245 ± 0.046 | 0.0445 ± 0.016 | -0.0445 ± 0.052 | -0.028 ± 0.021 | 0.0375 ± 0.079 | -0.047 ± 0.034 | -0.184 ± 0.04 | -0.637 ± 0.093 | 0.126 ± 0.061 | 0.0895 ± 0.077 | 0.143 ± 0.14 | -0.035 ± 0.037 | 0.013 ± 0.034 | 0.0045 ± 0.093 |
